PMC11859928, “Design, Synthesis, and Antiproliferative Activity of Novel Indole/1,2,4-Triazole Hybrids as Tubulin Polymerization Inhibitors” (Pharmaceuticals, 2025)
Where two headings read alike, the source gives them in different places.

Key:
[1] = tested on: panel of 60 human tumor cell lines; experiment: NCI five-dose assay, full panel; format: cell-based
HT29 = experiment: NCI five-dose assay; format: cell-based, human; details: HT29, Colon cancer
TK-10 = experiment: NCI five-dose assay; format: cell-based, human; details: TK-10, Renal cancer
T-47D = experiment: NCI five-dose assay; format: cell-based, human; details: Breast cancer
EKVX = experiment: NCI five-dose assay; format: cell-based, human; details: Non-small cell lung cancer
SK-OV-3 = experiment: NCI five-dose assay; format: cell-based, human; details: SK-OV-3, Ovarian cancer
SF-295 = experiment: NCI five-dose assay; format: cell-based, human; details: SF-295, CNS cancer
DU-145 = experiment: NCI five-dose assay; format: cell-based, human; details: DU-145, Prostate cancer
tubulin = target: T1, tubulin (Sus scrofa, UniProt P02550+P02554); experiment: Tubulin polymerization inhibitory assay; format: biochemical
T1 construct: purchased Cytoskeleton Inc., Denver, CO, USA
T1 sequence (P02554 whole entry): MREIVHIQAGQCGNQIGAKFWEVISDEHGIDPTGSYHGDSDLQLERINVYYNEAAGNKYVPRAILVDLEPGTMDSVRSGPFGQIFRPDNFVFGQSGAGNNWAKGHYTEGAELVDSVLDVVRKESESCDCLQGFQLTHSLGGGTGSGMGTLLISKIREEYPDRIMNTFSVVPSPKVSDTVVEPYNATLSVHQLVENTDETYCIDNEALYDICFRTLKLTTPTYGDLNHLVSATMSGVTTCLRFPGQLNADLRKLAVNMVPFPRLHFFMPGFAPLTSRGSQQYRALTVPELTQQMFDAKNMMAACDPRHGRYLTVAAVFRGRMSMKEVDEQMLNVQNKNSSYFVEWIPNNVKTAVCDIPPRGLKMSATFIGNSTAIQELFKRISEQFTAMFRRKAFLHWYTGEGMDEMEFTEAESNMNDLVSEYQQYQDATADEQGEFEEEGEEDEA
T1 sequence (P02550 whole entry): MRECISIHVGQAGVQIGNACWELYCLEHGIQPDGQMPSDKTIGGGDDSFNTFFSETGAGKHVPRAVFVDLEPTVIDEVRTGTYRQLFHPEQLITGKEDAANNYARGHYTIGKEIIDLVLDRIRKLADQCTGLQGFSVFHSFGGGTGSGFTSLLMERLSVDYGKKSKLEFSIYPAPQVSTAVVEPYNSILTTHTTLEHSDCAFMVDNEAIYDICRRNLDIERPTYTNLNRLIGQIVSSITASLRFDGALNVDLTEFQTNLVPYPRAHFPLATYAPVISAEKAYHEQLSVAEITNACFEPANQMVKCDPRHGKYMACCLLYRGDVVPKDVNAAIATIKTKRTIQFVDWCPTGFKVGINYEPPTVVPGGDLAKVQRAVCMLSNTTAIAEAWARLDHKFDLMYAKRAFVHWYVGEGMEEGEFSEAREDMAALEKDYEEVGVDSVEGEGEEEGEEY
Excerpt: The substances’ effects on tubulin polymerization were examined using the Tubulin Polymerization Assay Kit (Cytoskeleton Inc., Denver, CO, USA) according to the supplier’s instructions, with details described in Appendix A..
The activity of compounds on tubulin polymerization was investigated using the Tubulin Polymerization Assay Kit (Cytoskeleton Inc., Denver, CO, USA), which works via fluorescent reporter enhancement. […] Docetaxel and vincristine (Apoteket AB, Stockholm, Sweden) served as positive stabilizing and destabilizing controls. Both were used at a 3 µM concentration in PBS.

UACC-257 = experiment: NCI five-dose assay; format: cell-based, human; details: UACC-257, Melanoma
SF-268 = experiment: NCI five-dose assay; format: cell-based, human; details: SF-268, CNS cancer
CNS cancer subpanel = experiment: NCI five-dose assay, subpanel mean; format: cell-based, human
LOX IMVI = experiment: NCI five-dose assay; format: cell-based, human; details: Melanoma
NCI-H23 = experiment: NCI five-dose assay; format: cell-based, human; details: NCI-H23, Non-small cell lung cancer
NCI/ADR-RES = experiment: NCI five-dose assay; format: cell-based, human; details: Ovarian cancer
NCI-H522 = experiment: NCI five-dose assay; format: cell-based, human; details: NCI-H522, Non-small cell lung cancer
Melanoma subpanel = experiment: NCI five-dose assay, subpanel mean; format: cell-based, human
HCC-2998 = experiment: NCI five-dose assay; format: cell-based, human; details: HCC-2998, Colon cancer
K-562 = experiment: NCI five-dose assay; format: cell-based, human; details: K-562, Leukemia
Prostate cancer subpanel = experiment: NCI five-dose assay, subpanel mean; format: cell-based, human
COLO205 = experiment: NCI five-dose assay; format: cell-based, human; details: COLO205, Colon cancer
HCT-15 = experiment: NCI five-dose assay; format: cell-based, human; details: HCT-15, Colon cancer
SW-620 = experiment: NCI five-dose assay; format: cell-based, human; details: SW-620, Colon cancer
MDA-MB-435 = experiment: NCI five-dose assay; format: cell-based, human; details: MDA-MB-435, Melanoma
SR = experiment: NCI five-dose assay; format: cell-based, human; details: Leukemia
[2] = Homo sapiens, 48 h, read-out: LC50 (the source's name)
[3] = Homo sapiens, read-out: GI50 Conc. per Cell Lines

Cc1ccc(C(=O)CSc2nnc(-c3c[nH]c4ccccc34)n2-c2ccccc2)cc1 [Compound 6h, 2-((5-(1H-Indol-3-yl)-4-phenyl-4H-1,2,4-triazol-3-yl)thio)-1-(p-tolyl)ethenone]
GI50 ([1]; average sensitivity of all cell lines, read-out: GI50 MID a): 19.3 µM | GI50 ([1]; most of the tested cell lines across nine subpanels, read-out: GI50 values, range across nine subpanels): 8.42 to 33.5 µM | TGI Conc. per Cell Lines (HT29): 50.50 µM | CC50 (HT29; Homo sapiens, HT-29, 48 h, read-out: LC50 (the source's name)): > 100 µM | GI50 (HT29; Homo sapiens, HT-29, read-out: GI50 Conc. per Cell Lines): 15.6 µM | CC50 (TK-10; [2]): 85 µM | GI50 (TK-10; [3]): 23.2 µM | TGI Conc. per Cell Lines (TK-10): 44.40 µM | TGI Conc. per Cell Lines (T-47D): ˃100 µM | LC50 (concentration killing 50% of cells) (T-47D; Homo sapiens, T47D, 48 h): > 100 µM | GI50 (T-47D; Homo sapiens, T47D, read-out: GI50 Conc. per Cell Lines): 24.9 µM | CC50 (EKVX; [2]): > 100 µM | GI50 (EKVX; [3]): 19 µM | TGI Conc. per Cell Lines (EKVX): 98.90 µM | CC50 (SK-OV-3; [2]): 64.4 µM | GI50 (SK-OV-3; [3]): 17 µM | TGI Conc. per Cell Lines (SK-OV-3): 33.10 µM | CC50 (SF-295; [2]): 53.3 µM | GI50 (SF-295; [3]): 12.6 µM | TGI Conc. per Cell Lines (SF-295): 25.90 µM | TGI Conc. per Cell Lines (DU-145): >100 µM | CC50 (DU-145; [2]): > 100 µM | GI50 (DU-145; [3]): 4.43 µM | tubulin inhibitory activity, times lower than compound 7j (tubulin): 1.5 times | %inhibition (tubulin; conc 0.01 (unit not given; IC50 from this curve in µg/ml)): 5.97% | %inhibition (tubulin; conc 0.1 (unit not given; IC50 from this curve in µg/ml)): 16.8% | %inhibition (tubulin; conc 1 (unit not given; IC50 from this curve in µg/ml)): 30% | %inhibition (tubulin; conc 10 (unit not given; IC50 from this curve in µg/ml)): 58% | %inhibition (tubulin; conc 100 (unit not given; IC50 from this curve in µg/ml)): 81.2% | IC50 (tubulin; read-out: Tub. IC50±SD (converted)): 9.51 µM | IC50 (tubulin; read-out: Tubulin Inhibitory Effect, IC50): 9.5 ± 0.3 µM | CC50 (UACC-257; [2]): > 100 µM | GI50 (UACC-257; [3]): 28.9 µM | TGI Conc. per Cell Lines (UACC-257): >100 µM | CC50 (SF-268; [2]): > 100 µM | GI50 (SF-268; [3]): 24.2 µM | TGI Conc. per Cell Lines (SF-268): 78.90 µM | GI50 Selectivity Ratio (MID a/MID b) (CNS cancer subpanel; CNS cancer subpanel): 1.11 | GI50 (CNS cancer subpanel; Homo sapiens, average sensitivity of all cell lines of the CNS cancer subpanel, read-out: GI50 Subpanel MID b): 17.4 µM | GI50 (LOX IMVI; [3]): 14.3 µM | TGI Conc. per Cell Lines (LOX IMVI): 27.30 µM | CC50 (NCI-H23; [2]): 54.9 µM | GI50 (NCI-H23; [3]): 13.7 µM | TGI Conc. per Cell Lines (NCI-H23): 27.50 µM | LC50 (NCI/ADR-RES; Homo sapiens, 48 h): 76.8 µM | GI50 (NCI/ADR-RES; [3]): 11.9 µM | TGI Conc. per Cell Lines (NCI/ADR-RES): 30.20 µM | CC50 (NCI-H522; [2]): > 100 µM | GI50 (NCI-H522; [3]): 16.3 µM | TGI Conc. per Cell Lines (NCI-H522): 43.70 µM | GI50 (Melanoma subpanel; Homo sapiens, average sensitivity of all cell lines of the Melanoma subpanel, read-out: GI50 Subpanel MID b): 21.8 µM | GI50 Selectivity Ratio (MID a/MID b) (Melanoma subpanel; Melanoma subpanel): 0.88 | TGI Conc. per Cell Lines (HCC-2998): 51.70 µM | CC50 (HCC-2998; [2]): > 100 µM | GI50 (HCC-2998; [3]): 20 µM | CC50 (K-562; Homo sapiens, K562, 48 h, read-out: LC50 (the source's name)): > 100 µM | GI50 (K-562; Homo sapiens, K562, read-out: GI50 Conc. per Cell Lines): 22.1 µM | TGI Conc. per Cell Lines (K-562): ˃100 µM | GI50 (Prostate cancer subpanel; Homo sapiens, average sensitivity of all cell lines of the Prostate cancer subpanel, read-out: GI50 Subpanel MID b): 8.42 µM | GI50 Selectivity Ratio (MID a/MID b) (Prostate cancer subpanel; Prostate cancer subpanel): 2.29 | TGI Conc. per Cell Lines (COLO205): >100 µM | CC50 (COLO205; Homo sapiens, COLO 205, 48 h, read-out: LC50 (the source's name)): > 100 µM | GI50 (COLO205; Homo sapiens, COLO 205, read-out: GI50 Conc. per Cell Lines): 34.4 µM | TGI Conc. per Cell Lines (HCT-15): >100 µM | CC50 (HCT-15; [2]): > 100 µM | GI50 (HCT-15; [3]): 22.6 µM | CC50 (SW-620; [2]): > 100 µM | GI50 (SW-620; [3]): 30.3 µM | TGI Conc. per Cell Lines (SW-620): >100 µM | CC50 (MDA-MB-435; [2]): > 100 µM | GI50 (MDA-MB-435; [3]): 22.8 µM | TGI Conc. per Cell Lines (MDA-MB-435): 65.40 µM | CC50 (SR; [2]): > 100 µM | GI50 (SR; [3]): 42 µM | TGI Conc. per Cell Lines (SR): ˃100 µM
